Test results from publication PMC6321058, “Crystal Structures and Cytotoxicity of ent-Kaurane-Type Diterpenoids from Two Aspilia Species” (Molecules, 2018).

Experiments:
[1] = MTT cytotoxicity assay, LO2; format: cell-based; details: human, normal cell line LO2, MTT, 0.19–100 μM
Experimental: (§1) Reagent and cells. Adenocarcinomic human alveolar basal epithelial (A549) and human hepatoma (HepG2) cancer cell lines, immortalized normal human liver (LO2), human bronchial epithelial (BEAS-2B), and fibroblast-like CCD19Lu cells were purchased from [NT], Manassas, VA, USA). The cells were cultured in RPMI-1640 medium supplemented with 10% fetal bovine serum and antibiotics: Penicillin (50 U/Ml) and streptomycin (50 μg/mL; Invitrogen, Paisley, Scotland, UK). All cells were incubated at 37 °C in a 5% humidified CO2 incubator). All test compounds were dissolved in DMSO at a final concentration of 50 mM and stored at -20 °C before use. […] Briefly, 5 × 10^3 cells per well were seeded in 96-well plates before drug treatments. […] Cells without drug treatment were used as controls. Subsequently, 10 μL of 5 mg/mL MTT solution was added to each well and incubated at 37 °C for 4 h, followed by the addition of 100 μL solubilization buffer (12 mM HCl in a solution of 10% SDS) and overnight incubation. The absorbance, A570 nm, was then determined in each well on the next day. The percentage cell viability was calculated using the expression: % Viability = Atreated/ Acontrol × 100, and was given as cytotoxicity in Table 3.

[2] = MTT cytotoxicity assay, A549; format: cell-based; details: human, cancer cell line A549, MTT, 0.19–100 μM
Experimental: as §1

[3] = MTT cytotoxicity assay, BEAS-2B; format: cell-based; details: human, normal cell line BEAS-2B, 0.19–100 μM
Experimental: as §1

[4] = MTT cytotoxicity assay, Hep-G2; format: cell-based; details: human, cancer cell line Hep-G2, MTT, 0.19–100 μM
Experimental: as §1

[5] = LO2 cells (immortalized normal human liver)
[6] = BEAS-2B cells (human bronchial epithelial)

Row | Compound | IC50 at 72 h [1] [µM] | IC50 at 72 h [2] [µM] | IC50 at 72 h [3] [µM] | IC50 at 72 h [4] [µM] | IC50 at 72 h [1, 5] [µM] | IC50 at 72 h [3, 6] [µM] | IC50 at 72 h ([4]; HepG2 cells (human hepatoma)) [µM] | melting point [°C]
1 | C=C1CC23CCC4C(C)(C(=O)O)CCCC4(C)C2=CC(=O)C1C3 (stereo not drawn) [Compound 18, 12-oxo-ent-kaur-9(11),16-dien-19-oic acid] | 30 ± 1.7 | 80.5 ± 1.8 | 38.6 ± 2.5 | 81.3 ± 0.3 |  |  |  | 
2 | C=C1C2CCC3C4(C)CCCC(C)(C(=O)O)C4CCC3(C2)C1OC(=O)C(C)=CC (stereo not drawn) [Compound 7, 15α-angeloyloxy-ent-kaur-16-en-19-oic acid] |  | > 100 |  |  | > 100 | > 100 | > 100 | 
3 | CC(=O)O[C@H]1C(=O)[C@@]2(C)[C@H]([C@H](OC(=O)c3ccccc3)[C@]3(O)C[C@H](OC(=O)[C@H](O)[C@@H](NC(=O)c4ccccc4)c4ccccc4)C(C)=C1C3(C)C)[C@]1(OC(C)=O)CO[C@@H]1C[C@@H]2O [Paclitaxel, reference compound] |  | 0.0033 |  |  | < 0.1 | < 0.1 | 0.19 | 
4 | C[C@@]12CCC[C@@](C)(C(=O)O)[C@H]1CC[C@@]13C[C@@H](CC[C@H]12)[C@](C)(O)C3 [Compound 2, (16R)-hydroxy-ent-kauran-19-oic acid] | > 100 | > 100 | > 100 | > 100 |  |  |  | 
5 | C=C1CC23CCC4C(C)(C(=O)O)CCCC4(C)C2CCC1C3 (stereo not drawn) [Compound 11, ent-kaur-16-en-19-oic acid] |  | > 100 |  |  | > 100 | > 100 | > 100 | 
6 | C=C1CC23CCC4C(C)(C(=O)OC)CCCC4(C)C2CCC1C3 (stereo not drawn) [Compound 10, methyl-ent-kaur-16-en-19-oate] |  | > 100 |  |  | > 100 | > 100 | > 100 | 
7 | C=C1C[C@@]23CC[C@@H]4[C@](C)(C(=O)O)CCC[C@@]4(C)C2=CC[C@@H]1C3 [Compound 6, ent-kaur-9(11),16-dien-19-oic acid] | > 100 | > 100 | > 100 | > 100 |  |  |  | 
8 | C=C1C[C@@]23CC[C@@H]4C(C)(C)CCC[C@@]4(C)C2=CC(=O)C1C3 [Compound 9, ent-kaur-9(11),16-dien-12-one] |  | > 100 |  |  | 75.3 ± 2.8 | > 100 | > 100 | 
9 | CC=C(C)C(=O)OC1C23CCC4C(C)(C(=O)O)CCCC4(C)C2CCC(C3)C12CO2 (stereo not drawn) [Compound 5, 15α-angeloyloxy-16β,17-epoxy-ent-kauran-19-oic acid] |  | 30.7 ± 1.7 |  |  | > 100 | > 100 | > 100 | 242 to 243
10 | C[C@@H]1C[C@@]23CC[C@@H]4[C@](C)(C(=O)O)CCC[C@@]4(C)C2=CC[C@@H]1C3 [Compound 6b, ent-kaur-9(11)-en-19-oic acid] |  | > 100 |  |  | > 100 | > 100 | > 100 | 
11 | C=C1C2CCC3(O)C4(C)CCCC(C)(C(=O)OC)C4CCC3(C2)C1OC(=O)C(C)=CC (stereo not drawn) [Compound 4, methyl-9β-hydroxy-15α-angeloyloxy-ent-kaur-16-en-19-oate] |  | > 100 |  |  | > 100 | > 100 | > 100 | 
12 | C=C1C2CCC3(O)C4(C)CCCC(C)(C(=O)O)C4CCC3(C2)C1OC(=O)C(C)=CC (stereo not drawn) [Compound 3, 9β-hydroxy-15α-angeloyloxy-ent-kaur-16-en-19-oic acid] |  | > 100 |  |  | 57.2 ± 1.2 | 89.9 ± 2 | 24.7 ± 2.8 | 
13 | CO[C@@]1(C)C[C@@]23CC[C@@H]4[C@](C)(C(=O)O)CCC[C@@]4(C)C2=CC[C@@H]1C3 [Compound 6a] |  | > 100 |  |  | > 100 | > 100 | > 100 | 
14 | C=C1C2CCC3C4(C)CCCC(C)(C(=O)OC)C4CCC3(C2)C1OC(=O)C(C)=CC (stereo not drawn) [Compound 17, methyl-15α-angeloyloxy-ent-kaur-16-en-19-oate] |  | > 100 |  |  | > 100 | > 100 | > 100 | 
15 | C=C1CC23CCC4C(C)(C(=O)O)CCCC4(C)C2=CC(OC)C1C3 (stereo not drawn) [Compound 1, 12α-methoxy-ent-kaur-9(11),16-dien-19-oic acid] | > 100 | > 100 | > 100 | 27.3 ± 1.9 |  |  |  | 184 to 186
16 | CC[C@H](/C=C/[C@@H](C)[C@H]1CC[C@H]2[C@@H]3CC=C4C[C@@H](O)CC[C@]4(C)[C@H]3CC[C@]12C)C(C)C [Compound 14, stigmasta-5,22(E)-dien-3β-ol] | > 100 | > 100 | > 100 | > 100 |  |  |  | 
